# US10829440B2, “Antibacterial compounds and methods of making and using same” (Brown University, priority 2015, dated 2020)
# Key:
# S. pneumoniae = test: MIC against Gram-positive organisms: S. pneumoniae; assay type: cell-based, Streptococcus pneumoniae; conditions: for MIC: Streptococcus pneumoniae, read-out: Minimum inhibitory concentration (MIC) S. pneumoniae
# LytG (GH73) = LytG (GH73) (Bacillus subtilis, UniProt O32083); test: In vitro GlcNAcase inhibition, turbidometric assay with purified peptidoglycan; assay type: biochemical, B. subtilis
# Sequence of LytG (GH73) (O32083 30-282): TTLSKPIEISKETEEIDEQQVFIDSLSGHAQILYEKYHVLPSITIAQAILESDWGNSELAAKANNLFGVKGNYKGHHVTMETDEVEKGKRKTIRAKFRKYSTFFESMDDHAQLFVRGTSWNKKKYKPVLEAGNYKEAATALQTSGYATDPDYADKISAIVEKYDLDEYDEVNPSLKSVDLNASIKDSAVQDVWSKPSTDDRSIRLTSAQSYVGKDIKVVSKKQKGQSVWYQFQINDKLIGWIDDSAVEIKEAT
# Excerpt: FIG. 9 is a graph illustrating inhibition of LytG (GH73) from B. subtilis by fgka. The assay involved in vitro GlcNAcase inhibition of B. subtilis LytG by fgka, as measured using turbidometric assays with purified peptidoglycan (Horsburgh, et al., 2003, Biochemistry 42:257).
# FlgJ (GH73) = FlgJ (GH73) (Salmonella typhimurium, UniProt P15931); test: Inhibition of FlgJ (GH73); assay type: biochemical, Salmonella enterica
# Sequence of FlgJ (GH73) (P15931 whole entry): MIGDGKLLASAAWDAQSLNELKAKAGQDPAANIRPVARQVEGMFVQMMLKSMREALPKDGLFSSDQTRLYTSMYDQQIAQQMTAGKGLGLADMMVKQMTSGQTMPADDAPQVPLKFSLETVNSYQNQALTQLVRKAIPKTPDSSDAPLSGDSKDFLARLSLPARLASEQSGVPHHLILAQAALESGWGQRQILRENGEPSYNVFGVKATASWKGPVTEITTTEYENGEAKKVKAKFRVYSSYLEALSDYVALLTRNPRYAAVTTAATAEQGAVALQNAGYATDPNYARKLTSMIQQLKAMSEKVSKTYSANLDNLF
# Method: Activity was measured as described in Herlihey, et al. 2014, J. Biol Chem 289(45):31029.
# B. subtilis [1] = test: Resazurin microtiter MIC / serial dilution whole-cell assay; conditions: for Minimum inhibitory concentration (MIC), lowest concentration preventing color change blue to pink: serial dilution 250 μM down to 7.9 μM, triplicate, plates incubated only 30 minutes due to experimental error
# Method: (§1) Bacillus subtilis ATCC 11775 was plated on agar from a 20% glycerol stock solution stored at −80° C. Inoculated plates were then incubated at 37° C. under aerobic conditions for 16 hours. Single cultures were transferred to Nutrient Broth (NB) and cultured for 16 hours under the same conditions.
# (§2) Second passage cultures were standardized to O.D.600 nm=1.0.
# The resazurin microtiter assay procedure described by Palomino and coworkers was used for assessing antimicrobial activity (Palomino. et al., 2002, Antimicrob. Agents Chemother. 46:2720-2722). The assay was performed in LB broth. Resazurin sodium salt powder was prepared in distilled water and filter sterilized at 0.001% (w/v) for MIC assays and at 0.01% (w/v) for single concentration assays. Compounds were first screened in MIC assays to assess whether growth inhibition was dependent on inhibitor concentration. The plates were incubated for 30 min under aerobic conditions. Growth controls containing no inhibitory compound, sterility controls without inoculation, and controls containing a known antibiotic, chloramphenicol, were also included. The innoculum was prepared from second passage cultures in Nutrient Broth (NB) and standardized to O.D.600 nm=1.0 and the wells inoculated with a 1:20 dilution. Serial two-fold dilutions of each compound in 100 μL of medium were prepared directly in 96 well plates at concentrations ranging from 250 μM to 7 μM. After incubation 30 μL of resazurin solution was added to each well and incubated for 30 min. A change in color from blue to pink indicated reduction of resazurin, and therefore bacterial growth. Minimum inhibitory concentration (MIC) was determined as the lowest drug concentration that prevented the color change from blue to pink. Inhibition was quantified by observation of color change. Later studies were carried out at a single inhibitor concentration of 250 μM. The plates were incubated for 4 h under aerobic conditions with the same controls. After incubation 30 μL of resazurin solution was added to each well and incubated for 60 min. Inhibition was quantified by fluorescence readings from plate reader SAFIRE, Firmware: V 2.20 08/02 Safire. […] Plates were held at 37° C. and fluorescence measurements were taken at 0, 5, 10, 20, 30, and 60 min after addition of dye. Lower fluorescence values correlate to greater degrees of inhibition.
# Compounds were tested in vivo for their capacity to inhibit B. subtilis growth. […] Resorufin is also fluorescent and can be measured by a plate-reader.
# Each dilution was run in triplicate. […] Minimum inhibitory concentration (MIC) was determined as the lowest drug concentration that prevented the color change from blue to pink. The fluorescence was again quantified by a plate reader, and two identical plates were run simultaneously.
# P. difficile = test: MIC against Gram-positive organisms: P. difficile; assay type: cell-based, Clostridium difficile (Peptoclostridium difficile); conditions: Clostridioides difficile; read-out: Minimum inhibitory concentration (MIC) P. difficile
# E. coli = conditions: cited from earlier work
# S. aureus = test: MIC against Gram-positive organisms: S. aureus; assay type: cell-based, Staphylococcus aureus; conditions: for MIC: Staphylococcus aureus, read-out: Minimum inhibitory concentration (MIC) S. aureus
# B. subtilis [2] = test: Single concentration (250 μM) whole-cell resazurin fluorescence assay; conditions: for degree of inhibition (smallest values of fluorescence): 250 μM inhibitor, fluorescence at 60 min
# Method: as §1, §2
# The resazurin microtiter assay procedure described by Palomino and coworkers was used for assessing antimicrobial activity (Palomino. et al., 2002, Antimicrob. Agents Chemother. 46:2720-2722). The assay was performed in LB broth. Resazurin sodium salt powder was prepared in distilled water and filter sterilized at 0.001% (w/v) for MIC assays and at 0.01% (w/v) for single concentration assays. […] Growth controls containing no inhibitory compound, sterility controls without inoculation, and controls containing a known antibiotic, chloramphenicol, were also included. […] Later studies were carried out at a single inhibitor concentration of 250 μM. The plates were incubated for 4 h under aerobic conditions with the same controls. After incubation 30 μL of resazurin solution was added to each well and incubated for 60 min. Inhibition was quantified by fluorescence readings from plate reader SAFIRE, Firmware: V 2.20 08/02 Safire. Excitation wavelength set to 560 nm, emission wavelength set to 590 nm. Well containing dye and non-inoculated cells was used as gain set. Plates were held at 37° C. and fluorescence measurements were taken at 0, 5, 10, 20, 30, and 60 min after addition of dye. Lower fluorescence values correlate to greater degrees of inhibition.
# Compounds were tested in vivo for their capacity to inhibit B. subtilis growth. In order to determine growth inhibition, a resazurin whole-cell assay was used (Kuhn, et al., 2014, Medchemcomm 5:1213-1217). […] The resazurin is naturally a blue color, but with reductive species produced during bacterial growth, it is reduced to resorufin, which appears pink. Resorufin is also fluorescent and can be measured by a plate-reader.
# In an initial set-up, each compound was evaluated at the single concentration of 250 μM in triplicate. Growth controls containing no inhibitory compound, sterility controls without inoculation, and controls containing a known antibiotic, chloramphenicol, were also included. After incubation of the bacteria with the inhibitors for four hours, resazurin dye was added and the plate was immediately placed in a plate reader. Fluorescence of each well was measured at 590 nm at 0, 5, 10, 20, and 60 min after addition of the dye. A higher growth rate of bacteria produces more resorufin and thus more fluorescence. Lower fluorescence therefore indicates better growth inhibition.
# Fluorescence was further evaluated as it developed over time.
# B. subtilis [3] = test: MIC against Gram-positive organisms: B. subtilis; assay type: cell-based; conditions: Bacillus subtilis; read-out: Minimum inhibitory concentration (MIC) B. subtilis
# [4] = system: peptidoglycan synthesis/metabolism in B. subtilis; test: UDP-MurNAc-pentapeptide accumulation (nucleotide sugar extraction, C18-RP-HPLC); assay type: cell-based, Bacillus subtilis; conditions: 4×MIC for 1 h after chloramphenicol pretreatment
# Method: Ugi-derived terminal alkynes target peptidoglycan synthesis/metabolism. B. subtilis was grown to mid-exponential phase (O.D.600˜0.6) and all cultures treated with Chloramphenicol (Cm) ([…]) for 15 min. Cultures were then exposed to vancomycin (Van) ([…]) or fgkc (4×MIC) for 1 h. Nucleotide sugars were extracted with hot water and separated by C18-RP-HPLC. (*) denotes retention time of UDP-MurNAc-pentapeptide.
compound,measurement,setting,value
C#CCN(C(=O)c1ccccc1I)C(C(=O)NC1CCCCC1)C1CCCCC1 (stereo not shown) [fgbc],antibacterial activity against S. pneumoniae,S. pneumoniae,antibacterial activity
same,MIC,S. pneumoniae,3.56 µg/mL
CCCCNC(=O)C(C1CCCCC1)N(Cc1cn(C2OC(CO)C(O)C(O)C2NC(C)=O)nn1)C(=O)c1ccccc1I (stereo not shown) [BI.fgba],inhibition of GlcNAcase LytG,LytG (GH73),inhibits
same,inhibition of FlgJ (GH73),FlgJ (GH73),weak inhibition
same,MIC,"B. subtilis [1]; Bacillus subtilis, read-out: minimum inhibitory concentration (MIC)",63 µM
same,bacteriostatic activity,B. subtilis [1]; bacterial strain B. subtilis,concentration-dependent bacteriostatic activity
C#CCN(C(=O)c1ccccc1)C(C(=O)NCCCC)C1CCCCC1 (stereo not shown) [rgba],"Minimum inhibitory concentration (MIC), lowest concentration preventing color change blue to pink",B. subtilis [1],250 µM
CCCCNC(=O)C(C1CCCCC1)N(C(=O)c1ccccc1I)C(C)C (stereo not shown) [fgoa],"Minimum inhibitory concentration (MIC), lowest concentration preventing color change blue to pink",B. subtilis [1],62.5 µM
CCCCNC(=O)C(C1CCCCC1)N(C(=O)c1ccccc1I)C(C)(C)C (stereo not shown) [fgna],MIC,P. difficile,17.5 µg/mL
CC1=N[C@@H]2[C@@H](O)[C@H](O)[C@@H](CO)O[C@@H]2S1 [NAG-thiazoline],effect on the viability of E. coli,E. coli,no effect
CCCCNC(=O)C(C1CCCCC1)N(C(=O)c1ccccc1I)c1ccccc1 (stereo not shown) [fgqa],MIC,S. aureus,3.64 µg/mL
COc1ccc(C(C(=O)NCc2ccccc2)N(C(=O)c2ccccc2I)c2ccccc2)cc1 (stereo not shown) [fbqb],activity (structure-activity comparison),"B. subtilis [2]; 250 μM, compared to aliphatic derivatives",lower activity
O=C(NCc1ccccc1)C(C1CCCCC1)N(C(=O)c1ccccc1I)C1CCCCC1 (stereo not shown) [fgkb],antibacterial activity against B. subtilis Lyt G,B. subtilis [2],antibacterial activity
same,degree of inhibition (smallest values of fluorescence),B. subtilis [2],highest degree of inhibition
CCCCNC(=O)C(C1CCCCC1)N(C(=O)c1ccccc1I)C1CCCCC1 (stereo not shown) [fgka],MIC,B. subtilis [3],11.5 µg/mL
C#CCN(C(=O)c1ccccc1I)C(C(=O)NCc1ccccc1)C1CCCCC1 (stereo not shown) [fgbb],antibacterial activity against S. pneumoniae,S. pneumoniae,antibacterial activity
same,MIC,S. pneumoniae,3.62 µg/mL
C#CCN(C(=O)c1ccccc1I)C(C(=O)NCCCC)C1CCCCC1 (stereo not shown) [fgba],antibacterial activity against S. aureus,S. aureus,antibacterial activity
same,MIC,S. aureus,2.81 µg/mL
same,inhibition of FlgJ (GH73),FlgJ (GH73),weak inhibition
O=C(NC1CCCCC1)C(C1CCCCC1)N(C(=O)c1ccccc1I)C1CCCCC1 (stereo not shown) [fgkc],antibacterial activity against S. pneumoniae,S. pneumoniae,antibacterial activity
same,MIC,B. subtilis [3],1.65 µg/mL
same,UDP-MurNAc-pentapeptide accumulation,[4],results in UDP-MurNAc-pentapeptide accumulation
same,antibacterial activity against B. subtilis Lyt G,B. subtilis [2],antibacterial activity
same,degree of inhibition (smallest values of fluorescence),B. subtilis [2],highest degree of inhibition
